Test results: PubChem BioAssay (NCI)
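Growth conditions: 96-well plates. Treatment: test compound, 48 hours, 5 concentrations. Analysis: linear interpolation between bracketing concentrations; unreached endpoints set to highest concentration. Definition used: TGI = concentration required for complete inhibition of growth.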

Assays:
Assay in all cases: NCI anticancer screen, dose series, 48 h
[1] = system: TK-10 renal
[2] = system: EKVX NSCLC
[3] = system: NCI-H460 lung
[4] = system: HCC-2998 colon
[5] = system: MCF7 breast
[6] = system: MDA-MB-435
[7] = system: PC-3 prostate
[8] = system: UACC-257 melanoma
[9] = system: SNB-19 CNS
[10] = system: MOLT-4 leukemia
[11] = system: HCT-116 colon
[12] = system: RPMI-8226 leukemia
[13] = system: HT29 colon
[14] = system: HS 578T breast
[15] = system: SK-MEL-2 melanoma
[16] = system: NCI/ADR-RES ovarian
[17] = system: OVCAR-8 ovarian
[18] = system: NCI-H522 lung
[19] = system: KM12 colon
[20] = system: LOX IMVI melanoma
[21] = system: UO-31 renal
[22] = system: MDA-MB-231 breast
[23] = system: OVCAR-4 ovarian
[24] = system: OVCAR-3 ovarian
[25] = system: HCT-15 colon
[26] = system: OVCAR-5 ovarian
[27] = system: A549 NSCLC
[28] = system: UACC-62 melanoma
[29] = system: NCI-H226 lung
[30] = system: BT-549 breast
[31] = system: SN12C renal
[32] = system: NCI-H23 lung
[33] = system: COLO 205 colon
[34] = system: CCRF-CEM leukemia
[35] = system: U251 CNS
[36] = system: RXF 393 renal
[37] = system: HOP-62 NSCLC
[38] = system: M14 melanoma
[39] = system: 786-0 renal
[40] = system: A498 renal
[41] = system: SF-539 CNS
[42] = system: ACHN renal
[43] = system: SF-295 CNS
[44] = system: SK-MEL-5 melanoma
[45] = system: HOP-92 NSCLC
[46] = system: SW-620 colon
[47] = system: K-562 leukemia
[48] = system: T-47D breast
[49] = system: DU-145 prostate
[50] = system: SK-MEL-28 melanoma
[51] = system: HL-60(TB) leukemia
[52] = system: IGROV1 ovarian
[53] = system: SK-OV-3 ovarian
[54] = system: SNB-75 CNS
[55] = system: SF-268 CNS
[56] = system: MDA-N
[57] = system: MALME-3M melanoma
[58] = system: CAKI-1 renal
[59] = system: SR leukemia

## Cc1nc(Cl)c(Cl)c(Cl)n1
[1]
  TGI: 3.51 µM
[2]
  TGI: 1.17 µM
[3]
  TGI: 6.33 µM
[4]
  TGI: 7.04 µM
[5]
  TGI: 1.91 µM
[6]
  TGI: 1.71 µM
[7]
  TGI: 0.988 µM
[8]
  TGI: 1.62 µM
[9]
  TGI: 2.74 µM
[10]
  TGI: < 0.025 µM
[11]
  TGI: 0.24 µM
[12]
  TGI: 0.203 µM
[13]
  TGI: 0.442 µM
[14]
  TGI: 4.49 µM
[15]
  TGI: 2.73 µM
[16]
  TGI: 15.3 µM
[17]
  TGI: 2 µM
[18]
  TGI: 3.88 µM
[19]
  TGI: 1 µM
[20]
  TGI: 0.585 µM
[21]
  TGI: 0.208 µM
[22]
  TGI: 0.656 µM
[23]
  TGI: 0.097 µM
[24]
  TGI: 0.281 µM
[25]
  TGI: 1.96 µM
[26]
  TGI: 3.03 µM
[27]
  TGI: 3.25 µM
[28]
  TGI: 1.46 µM
[29]
  TGI: 6.04 µM
[30]
  TGI: 0.482 µM
[31]
  TGI: 1.26 µM
[32]
  TGI: 2.1 µM
[33]
  TGI: 1.42 µM
[34]
  TGI: 0.0333 µM
[35]
  TGI: 4.07 µM
[36]
  TGI: 1.85 µM
[37]
  TGI: 0.974 µM
[38]
  TGI: 0.48 µM
[39]
  TGI: 1.47 µM
[40]
  TGI: 4.81 µM
[41]
  TGI: 2.82 µM
[42]
  TGI: 1.1 µM
[43]
  TGI: 3.58 µM
[44]
  TGI: 1.97 µM
[45]
  TGI: 0.849 µM
[46]
  TGI: 0.149 µM
[47]
  TGI: 0.0358 µM
[48]
  TGI: 7.71 µM
[49]
  TGI: 9.24 µM
[50]
  TGI: 1.2 µM
[51]
  TGI: 0.0553 µM
[52]
  TGI: 0.344 µM
[53]
  TGI: 7.53 µM
[54]
  TGI: 2.7 µM
[55]
  TGI: 4.27 µM
[56]
  TGI: 3.15 µM
[57]
  TGI: 0.573 µM

## C=C(C)[C@@H]1C[C@H]2O[C@](O)(C(=C)CC(=O)/C=C(/C)C[C@@H]3OC(=O)[C@]24O[C@@H]34)[C@H]1O
[1]
  TGI: > 100 µM
[2]
  TGI: > 100 µM
[3]
  TGI: > 100 µM
[4]
  TGI: > 100 µM
[5]
  TGI: > 100 µM
[6]
  TGI: > 100 µM
[7]
  TGI: > 100 µM
[8]
  TGI: > 100 µM
[58]
  TGI: > 100 µM
[9]
  TGI: > 100 µM
[10]
  TGI: > 100 µM
[11]
  TGI: > 100 µM
[12]
  TGI: > 100 µM
[13]
  TGI: > 100 µM
[15]
  TGI: > 100 µM
[16]
  TGI: > 100 µM
[17]
  TGI: > 100 µM
[18]
  TGI: > 100 µM
[19]
  TGI: > 100 µM
[20]
  TGI: > 100 µM
[21]
  TGI: > 100 µM
[22]
  TGI: > 100 µM
[23]
  TGI: > 100 µM
[25]
  TGI: > 100 µM
[26]
  TGI: > 100 µM
[27]
  TGI: > 100 µM
[28]
  TGI: > 100 µM
[29]
  TGI: > 100 µM
[30]
  TGI: > 100 µM
[31]
  TGI: > 100 µM
[32]
  TGI: > 100 µM
[33]
  TGI: > 100 µM
[34]
  TGI: > 100 µM
[35]
  TGI: > 100 µM
[36]
  TGI: > 100 µM
[37]
  TGI: > 100 µM
[59]
  TGI: > 100 µM
[38]
  TGI: > 100 µM
[39]
  TGI: > 100 µM
[40]
  TGI: > 100 µM
[41]
  TGI: > 100 µM
[42]
  TGI: > 100 µM
[43]
  TGI: > 100 µM
[44]
  TGI: > 100 µM
[46]
  TGI: > 100 µM
[47]
  TGI: > 100 µM
[48]
  TGI: > 100 µM
[49]
  TGI: > 100 µM
[50]
  TGI: > 100 µM
[52]
  TGI: > 100 µM
[53]
  TGI: > 100 µM
[54]
  TGI: > 100 µM
[55]
  TGI: > 100 µM
[56]
  TGI: > 100 µM
[57]
  TGI: > 100 µM
